The values that follow come from patent US11324743B2, “Treatment for the non alcoholic steatohepatitis and fibrosis” (METABOLYS, priority 2016, dated 2022).

Assay [1] has as its system NASH mice (STAM model). The assay is described as follows: In vivo study 2 to assess effects on fibrosis (STAM model). Details: species or system C57BL/6 mice. From the text:
(§1) The study was made on STAM model.
(§2) Pathogen-free fourteen day-pregnant C57BL/6 mice have been obtained from Japan SLC, Inc. (Japan). NASH has been established in male mice by a single subcutaneous injection of streptozotocin (Sigma, USA) after birth and feeding with a high fat diet (CLEA Japan, Japan) ad libitum after four weeks of age (day 28±2). Mice have been randomized into three groups of ten mice at six weeks of age (day 42±2), and three groups of ten mice at nine weeks of age (day 63±2), in the days before the start of treatment. Individual body weights have been measured daily during the treatment period. Food consumption has been measured twice per week during the treatment period. Survival, clinical signs and behavior of mice have been monitored daily.
The fibrosis in vivo study had 3 arms:
(§3) Group 1 (Vehicle): Ten NASH mice have been orally administered the same vehicle (0.5% methyl cellulose in water) as the mice receiving compound (1).
Group 2 (Telmisartan): Five mice have been administered the same vehicle supplemented with Telmisartan at a dose of 100 mg/kg (in 0.5% methyl cellulose in water) once daily from nine to twelve (9 to 12) weeks of age.
Group 3 (compound (1)): Ten NASH mice have been orally administered vehicle supplemented with compound (1) at a dose of 100 mg/kg (in 0.5% methyl cellulose in water) once daily from nine to twelve (9 to 12) weeks of age. The assessed parameters and histological outcome measures are described below.
(§4) The following measurements have been conducted for both in vivo studies: • Individual liver weight • Individual body weight • Plasma ALT (Alanine AminoTransferase), AST (Aspartate AminoTransferase), triglyceride, and total cholesterol have been measured by FUJI DRI-CHEM (Fujifilm, Japan) • Liver triglyceride has been quantified by Triglyceride E-test kit (Wako, Japan) • Histological analyses for liver sections (according to routine methods) • HE (Hematoxylin Eosin) staining and estimation of NAFLD Activity score (NAS) […]

In assay [2] the test system is NASH mice (STAM model). Nature of the assay: In vivo study 1 to assess effects on NASH (STAM model). On the set-up: species or system C57BL/6 mice.
From the text: as §1, §2
The NASH in vivo study had 3 arms:
as §3
Group 2 (Telmisartan): Five mice have been administered the same vehicle supplemented with Telmisartan at a dose of 100 mg/kg (in 0.5% methyl cellulose in water) once daily from six to nine (6 to 9) weeks of age.
Group 3 (compound (1)): Ten NASH mice have be orally administered vehicle supplemented with compound (1) at a dose of 100 mg/kg (in 0.5% methyl cellulose in water) once daily from six to nine (6 to 9) weeks of age. The assessed parameters and histological outcome measures are described below.
as §4

Assay [3] relates to STAM animal model. As to conditions: reference compound; cited from earlier work.

The structures appear in SMILES notation.

For `O=C(O)CCC(=O)c1ccc(OCCN2CCN(c3ccccn3)CC2)cc1` [Compound (1)], the “amount of liver triglycerides (TG)” value in assay [1] (100 mg/kg orally once daily from 9 to 12 weeks of age (FIG. 2)) and in assay [2] (100 mg/kg orally once daily from 6 to 9 weeks of age (FIG. 2)) was “reduction” in each case. Further, the “amount of plasma triglycerides (TG)” value was “reduction” in assay [1] (100 mg/kg orally once daily from 9 to 12 weeks of age (FIG. 3), effect especially in study 2) and “reduction” in assay [2] (100 mg/kg orally once daily from 6 to 9 weeks of age (FIG. 3)). The “NAFLD activity score (NAS)” value in assay [1] (100 mg/kg orally once daily from 9 to 12 weeks of age, in comparison to both vehicle and Telmisartan) is reported as “significant reduction”; in assay [2] (100 mg/kg orally once daily from 6 to 9 weeks of age, in comparison to both vehicle and Telmisartan), “significant reduction”.
As for `CCCc1nc2c(C)cc(-c3nc4ccccc4n3C)cc2n1Cc1ccc(-c2ccccc2C(=O)O)cc1` [Telmisartan], in assay [3], the “activity to treat NASH and fibrosis” value is listed as “active”.
